≈ marks a conversion by molar mass, not a printed value. Read-outs that look alike come from different tables or passages of the source.
What was measured:
Escherichia coli MG1655 = test: Antibiotic MIC determination (serial twofold dilutions, OD600 during 17 hours at 37° C.); assay type: cell-based; conditions: 37° C.; for MIC: Escherichia coli
Protocol: The Minimal Inhibitory Concentration (MIC) of the antibiotics was determined under the same culture conditions as the tests using the ATP assay kit. […] An exponentially growing culture (OD600=0.3) was added to each well (60 μl/well) of a sterile microtiter plate containing the test concentration of antibiotic (40 μl/well). The volume was completed to 120 μl with medium and OD600 nm measurements were performed using a microtiter plate reader (Infinite 200 PRO, TECAN) during 17 hours at 37° C.
In all the following experiments, the MIC values were measured for each antibiotic with parameters such as temperature, OD600 and equipment identical to those used for the bioluminescence assay.

[1] = system: E. coli MG1655 reporter cells; assay type: cell-based, Escherichia coli
Protocol: The classical luciferase was from Molecular Probes (ATP Determination Kit (A22066)). The thermostable luciferase was from “CheckLite AT100” (kikkoman). The Luciferin-luciferase reagents were prepared following manufacturer instructions. Bacteria from exponentially growing cultures (OD600=0.3) were added to each well (60 μl/well) of a black 96-microtiter plate (Greiner Bio-one, 655076) and 20 μl of the luciferin-luciferase reagent solution was added. The microtiter plate was incubated 5 min at 37° C. for reaction with the luciferase to eliminate traces of extracellular ATP. Then 40 μl of antibiotic solution (3 times concentrated) prepared in the culture medium were added. Bioluminescence of each well was monitored for 4 hours under shaking (218 rpm) and at 28 or 37° C., depending on the experiments (see legends of Figures). The reagent stability in presence or absence of antibiotics was checked in control experiments without bacteria but with 4 pmoles of ATP. Tests were also performed in 384-microtiter plates (Greiner Bio-one, 784076).
Aminoglycosides are bactericidal antibiotics causing translational miscoding with lethal consequences for the cell. Leakage of small molecules following an aminoglycoside shock was previously identified by different methods including radiolabelling. Therefore, the inventors investigated the response of live cells to aminoglycoside stress.

[2] = MG1655, read-out: MIC in MOPS glucose 0.4%, MOPS minimal medium glucose 0.4%
[3] = MG1655, LB medium, OD600 0.15 final, read-out: MIC in LB
[4] = antibiotic at 6.25 μg/mL, LB, 37° C.
[5] = antibiotic at 12.5 μg/mL, LB, 37° C.
[6] = antibiotic at 25 μg/mL, LB, 37° C.
[7] = antibiotic at 50 μg/mL, LB, 37° C.
[8] = antibiotic at 100 μg/mL, LB, 37° C.
[9] = antibiotic at 200 μg/mL, LB, 37° C.
[10] = MOPS minimal medium glucose 0.4%
[11] = antibiotic at 400 μg/mL, LB, 37° C.
[12] = MOPS minimal medium (glucose 0.4%), FIG. 11

Row | Compound | MIC (Escherichia coli MG1655; [2]) | MIC (Escherichia coli MG1655; [3]) | Lag time before ATP [1, 5] | Lag time before ATP [1, 6] | Lag time before ATP [1, 7] | Lag time before ATP [1, 8] | Shape of ATP release trace ([1]; LB medium, 37° C., FIG. 8) | Lag time before ATP [1, 9] | MIC in LB (Escherichia coli MG1655; LB medium, OD600 0.15 final) | MIC in MOPS glucose 0.4% (Escherichia coli MG1655; [10]) | also measured
1 | CO[C@H]1/C=C/O[C@@]2(C)Oc3c(C)c(O)c4c(O)c(c(/C=N/N5CCN(C)CC5)c(O)c4c3C2=O)NC(=O)/C(C)=C\C=C\[C@H](C)[C@H](O)[C@@H](C)[C@@H](O)[C@@H](C)[C@H](OC(C)=O)[C@@H]1C [Rifampicin] | 25 µg/mL (≈ 30.4 µM) | 50 µg/mL (≈ 60.8 µM) | 57.1 min | 38 min | 34.8 min | 34.6 min |  |  |  |  | Lag of ATP leakage ([1]; LB, FIG. 9): about 30 minutes; Lag time before ATP ([1]; antibiotic at 3.125 μg/mL, LB, 37° C.): 67 min; Lag time before ATP [1, 4]: 63.8 min
2 | CN[C@@H]1[C@H](O)[C@H](NC)[C@H]2O[C@@]3(O)C(=O)C[C@@H](C)O[C@H]3O[C@@H]2[C@H]1O [Spectinomycin] | 100 µg/mL (≈ 301 µM) | 50 µg/mL (≈ 150 µM) |  |  |  |  |  |  |  |  | Amplitude of ATP release ([1]; bacteriostatic antibiotics, LB, FIG. 9): very weak amplitude
3 | [H]/N=C(/N)N[C@H]1[C@H](O)[C@@H](O)[C@H](O[C@@H]2O[C@@H](C)[C@](O)(C=O)[C@H]2O[C@@H]2O[C@@H](CO)[C@H](O)[C@@H](O)[C@@H]2NC)[C@@H](N/C(N)=N\[H])[C@@H]1O [Streptomycin] | 6.25 µg/mL (≈ 10.7 µM) | 50 µg/mL (≈ 86 µM) | 39 min | 21 min | 16 min | 12 min | bi-phasic | 10 min |  |  | Lag before ATP release (shortest, incompressible value) ([1]; highest concentrations tested, LB, 37° C.): ~10 min
4 | CN(C)[C@@H]1C(O)=C(C(N)=O)C(=O)[C@@]2(O)C(O)=C3C(=O)c4c(O)cccc4[C@@](C)(O)[C@H]3C[C@@H]12 [Tetracycline] | 12.5 µg/mL (≈ 28.1 µM) | 12.5 µg/mL (≈ 28.1 µM) |  |  |  |  |  |  |  |  | High dose at which ATP release was observed ([1]; LB, FIG. 9): 4 times the MIC
5 | Cc1c(N)nc([C@H](CC(N)=O)NC[C@H](N)C(N)=O)nc1C(=O)N[C@H](C(=O)N[C@H](C)[C@@H](O)[C@H](C)C(=O)N[C@H](C(=O)NCCC1=N[C@@H](c2nc(C(=O)NCCCCN=C(N)N)cs2)CS1)[C@@H](C)O)[C@@H](O[C@@H]1O[C@@H](CO)[C@@H](O)[C@H](O)[C@@H]1O[C@H]1O[C@H](CO)[C@@H](O)[C@H](OC(N)=O)[C@@H]1O)c1cnc[nH]1 [Zeocin] |  |  | 112.2 min | 113.1 min | 97.5 min | 85.7 min |  | 68.6 min | 200 µg/mL (≈ 140 µM) | 200 µg/mL (≈ 140 µM) | Lag time before ATP [1, 11]: 57.8 min; Lag time before ATP ([1]; antibiotic at 800 μg/mL, LB, 37° C.): 51.9 min
6 | Bleomycin |  |  |  | 164.0 min | 142.0 min | 98.0 min |  | 78.0 min | 100 µg/mL | 200 µg/mL | Lag time before ATP [1, 11]: 71.5 min
7 | Gentamicin |  |  | 12.9 min |  |  |  | bi-phasic |  | 5.7 µg/mL | 0.6 µg/mL | Shape of ATP release trace [1, 12]: monophasic; Lag time before ATP ([1]; antibiotic at 0.19 μg/mL, LB, 37° C.): 136.1 min; Lag time before ATP ([1]; antibiotic at 0.39 μg/mL, LB, 37° C.): 136.3 min; Lag time before ATP ([1]; antibiotic at 0.78 μg/mL, LB, 37° C.): 67.1 min; Lag time before ATP ([1]; antibiotic at 1.56 μg/mL, LB, 37° C.): 54.0 min; Lag time before ATP ([1]; antibiotic at 3.12 μg/mL, LB, 37° C.): 30.2 min; Lag time before ATP [1, 4]: 16.2 min
8 | Polymyxin B |  |  |  |  |  |  | bi-phasic |  | 8 µg/mL | 4 µg/mL | Dose at which the amplitude of the initial burst was maximal ([1]; LB, FIG. 8): 4 µg/mL; Shape of ATP release trace [1, 12]: monophasic; Intensity of ATP release signal in minimal medium compared to rich medium (factor of decrease) ([1]; MOPS minimal medium vs LB): 3; Lag before ATP release ([1]; above the concentration of 4 μg/ml, LB): < 2.4 min; Lag time before ATP ([1]; antibiotic at 2 μg/mL, LB, 37° C.): 5.3 min; Lag time before ATP ([1]; antibiotic at 4 μg/mL, LB, 37° C.): 2.4 min; Lag time before ATP ([1]; antibiotic at 8 μg/mL, LB, 37° C.): < 2.4 min; Lag time before ATP ([1]; antibiotic at 16 μg/mL, LB, 37° C.): < 2.4 min; Lag time before ATP ([1]; antibiotic at 32 μg/mL, LB, 37° C.): < 2.4 min
